Data on two molecules can be found in patent US20150073033A1, “BIOMARKERS FOR CANCER CHARACTERIZATION AND TREATMENT” (Board of Regents, The University of Texas System, priority 2011, published 2015).

What all share (format): cell-based, human
Assay [1] has as its system PKM2 expression. Put plainly: EGF-induced PKM2 upregulation, immunoblotting. Conditions: U87/EGFR cells; pretreatment before EGF 100 ng/mL 12 h; AG1478 1 μM, cycloheximide 200 μg/mL, Bis-I 2 μM, Go6976 2 μM, NF-κB activation inhibitor II 7 μM, AKT inhibitor 10 μM, TBB 50 μM, U73122 2 μM. How it is done:
FIG. 56: EGFR activation results in upregulation of PKM2 expression. A-D: Immunoblotting analyses were performed with or without the indicated antibodies. A: The indicated cell lines were treated with EGF (100 ng/mL) for 12 h. B: U87 cells were stably transfected with plasmids expressing EGFR or EGFRvIII. […] D: U87/EGFR cells were pretreated with or without cycloheximide (CHX) (200 μg/mL) for 30 min before EGF (100 ng/mL) treatment for 12 h. […] The relative mRNA levels of PKM2 and PKM1 were normalized to the levels of untreated cells and β-actin mRNA. Data represent the mean±SD of three independent experiments.
FIG. 57: EGF increases PKM2 expression in a PKC- and NF-κB-dependent manner. A-D, H: Immunoblotting analyses were performed with the indicated antibodies. […] ChIP assay was performed with an anti-RelA antibody for immunoprecipitation, followed by PCR with PKM promoter-specific primers. F: An oligonucleotide containing the putative WT or mutated NF-κB binding sequence was labeled using [γ-^32P] ATP and T4 polynucleotide kinase. […] Samples were subjected to 5% polyacrylamide gel electrophoresis, and the dried gel was exposed to x-ray film. […] The relative levels of luciferase activity were normalized to the levels of untreated cells and to the levels of luciferase activity of the Renilla control plasmid. Data represent the mean±standard deviation of three independent experiments.
(§1) FIG. 58: PKCε downstream from PLCγ1, rather than TAK1, activates IKKβ and subsequently increases PKM2 expression. […] B: U87/EGFR cells were treated with TNFα (10 ng/mL) for the indicated time. C: U87/EGFR cells were treated with or without EGF (100 ng/mL) or TNFα (10 ng/mL) for 4 h. […] HIF1α was immunodepleted from the cell lysates by incubation with an anti-HIF1α antibody, which was followed by a ChIP assay with an anti-FLAG antibody for immunoprecipitation of FLAG-RelA and PCR analysis with PKM promoter-specific primers. […] F: 293T cells were transiently transfected with constitutively active (+) or kinase-dead (−) PKC mutants. […] H, I: 293T cells were transiently transfected with the indicated plasmids.
On the technique in general: In western blotting, separated proteins are transferred to a membrane and probed.

Assay [2] relates to IKKβ. Put plainly: EGF-induced IKKβ activation, immunoblotting. Conditions: U87/EGFR cells; U73122 2 μM 30 min before EGF 100 ng/mL 12 h. The protocol:
as §1

The subject of assay [3] is PTBP1. Nature of the assay: PTBP1 protein expression upon EGF stimulation. As to conditions: U251 cells; NF-κB activation inhibitor II 7 μM 30 min before EGF 100 ng/mL 8 h. How it is done:
FIG. 64: EGF increases PKM2 expression in a RelA- and PTBP1-dependent manner. […] Data represent the mean±standard deviation of three independent experiments. […] Immunoblotting analyses were performed with the indicated antibodies. C: RelA deficiency inhibits EGF-increased mRNA levels of PKM2, but not of PKM1. mRNA expression levels of PKM2 and PKM1 in RelA^+/+ and RelA^−/− fibroblasts treated with or without EGF (100 ng/mL) for 8 h were measured by real-time quantitative RT-PCR analysis. β-actin mRNA from the same cDNA library was amplified as a control. The relative mRNA levels of PKM2 (left panel) and PKM1 (right panel) were normalized to the levels of untreated cells and β-actin mRNA. Data represent the mean±SD of three independent experiments. D: PTBP1 depletion blocked EGF-induced PKM2 mRNA expression. […] The relative mRNA levels of PKM2 and PKM1 were normalized to the levels of untreated cells and β-actin mRNA. Data represent the mean±SD of three independent experiments. […] U87/EGFR cells transiently expressing a luciferase reporter vector containing the IκBα promoter were treated with or without TNFα (10 ng/mL) or EGF (100 ng/mL) for 8 h. The relative levels of luciferase activity were normalized to the levels of untreated cells and to the levels of luciferase activity of the Renilla control plasmid. Data represent the mean±standard deviation of three independent experiments.

For assay [4], the system named is NF-κB. Nature of the assay: TNFα-induced, NF-κB-dependent IκBα promoter luciferase reporter. As to conditions: U87/EGFR cells; NF-κB activation inhibitor II 7 μM 30 min before TNFα 10 ng/mL 8 h. How it is done:
FIG. 63: PKC, NF-κB, PI3-K, and CK2 are inhibited by their inhibitors. A, B: U87/EGFR cells were treated with Bis-I (2 μM) (A) or Go6976 (2 μM) (B) for 30 min before 12-O-tetradecanoylphorbol-13-acetate (TPA) ([…]) for 8 h. Immunoblotting analyses were performed with the indicated antibodies. C: U87/EGFR cells transiently expressing a luciferase reporter vector containing the IκBα promoter were pretreated with or without NF-κB activation inhibitor II (7 μM) for 30 min before TNFα (10 ng/mL) for 8 h. The relative levels of luciferase activity were normalized to the levels of untreated cells and to the levels of luciferase activity of the Renilla control plasmid. Data represent the mean±standard deviation of three independent experiments. […] Immunoblotting analyses were performed with the indicated antibodies.
The luciferase reporter vector pGL3-promoter containing either the WT or a mutated PKM promoter fragment or a luciferase reporter vector containing the IκBα promoter was transfected into U87/EGFR cells, RelA+/+, or RelA−/− fibroblasts seeded in 24-well plates at 1.5×10^4 cells/well. Twelve hours after transfection, the medium was replaced with 0.1% serum for another 12-24 h, and EGF (100 ng/mL) was added 12 h before harvesting. […] cell extract were used for measuring luciferase activity. […]

Molecules are shown by their SMILES.

As to `COc1ccc2c(c1)CC[C@@H]1[C@@H]2CC[C@]2(C)[C@@H](NCCCCCCN3C(=O)C=CC3=O)CC[C@@H]12` [U73122], the “EGF-induced PKM2 upregulation/expression” value in assay [1] is reported as “abrogated”. Moreover, the “EGF-induced IKKβ activation” value in assay [2] is “abrogated”.

With `Cc1ccc(NCCCc2ccccc2)c(N)c1` [NF-κB activation inhibitor II], in assay [3], the PTBP1 protein expression entry is “not affected”. Further, the “EGF-induced PKM2 upregulation/expression” value in assay [1] was “largely abrogated”. Besides, in assay [4], the “TNFα-induced and NF-κB-dependent IκBα promoter activation” value was “successfully blocked”.
